Data reported in patent US20250032444A1, “Prevention and treatment of depressive disorders and conditions promoted by protease containing plasma extracellular vesicles (PCpEV)” (Evexys Biotech Oy, priority 2021, published 2025).

What was measured:
Huh7 liver cells = assay: Uptake of HA, ADAM10/17, Hck and MMPs into EV from HAS-induced Huh7 liver cells (Western blot); type: cell-based
Experimental: (B): Hymecromone inhibits the uptake of HA into EV. […] Subsequently EV were purified from culture supernatant of Huh7 cells that were not treated for HAS induction (nil), from Huh7 cells that were treated for HAS induction (48 h; HAS-nd.) and from Huh7 cells that were treated for has induction and additionally incubated with Hymecromone (HAS-ind.+HyCr.). CD81 served as a loading control for pEV. Cell lysates from 293 T cells served as positive control for HA.
Subsequently EV were purified from culture supernatant of Huh7 cells that were not treated for HAS induction (nil), from Huh7 cells that were treated for HAS induction (48 h; HAS-ind.) and from Huh7 cells that were treated for HAS induction and additionally incubated with Hymecromone (HAS-nd.+HyCr.). Red arrows indicate the enzymatic active form of ADAM10 and ADAM17. CD81 served as a loading control for pEV. Cell lysates from 293 T cells served as positive control for HA.
In vitro a concentration of 300 μmol was sufficient to completely block the uploading of HA, Hck, and ADAM10 into vesicles. Whether these concentrations can be reached in circulation after oral uptake is not clear, as Hymecromone is efficiently metabolized in the […]. On the other hand PCpEV are generated by liver cells where Hymecromone is metabolized. […] Furthermore, there are likely inter-individual differences with respect to Hymecromone metabolization.
293Tcells were cultured in DMEM (Lonza), 10% (v/v) fetal bovine serum (FBS) with Penicillin-Strepto-mycin at 37° C., 5% CO2. For transient transfection, plasmids encoding the indicated proteins were transfected with Lipofectamine® LTX with Plus™ Reagent (Invitrogen) according to the manufacturer's instructions, or using the classical calcium phosphate procedure. Cells were used for experiments 24-72 h after transfection. Hymecromone was added at a final concentration of […] after transfection. For immunoblotting 20 μg of cellular protein lysate and 10 μg of EV lysate were loaded per lane. The latter corresponded to the production/secretion of 2-4 mio 293T cells within 48 h transfected and grown in one 10 cm dish.

Choriod Plexus = assay: Accumulation of labeled EV in the choroid plexus after tail vein injection of 4MU-treated EV; type: in vivo; settings: 72 h after injection of 4MU-treated EV into tail veins of a mouse, n=4/condition; FIG. 3
Experimental: (A) Accumulation/absence of accumulation of labeled pEV (red) in the Choriod Plexus 72 h after injection of 4MU-treated EV into tail veins of a mouse (n=4/condition). (B) IHC of a hippocampal section and quantification of EVc pos. cells. Statistical significance by one-way ANOVA and Tukey's test, ***p<0.005.

[1] = Treatment of patients with 4MU; type: in vivo; settings: 4×300 mg 4MU
[2] = cited from earlier work
three isotypes of HAS = settings: cited from earlier work

SMILES: Cc1cc(=O)oc2cc(O)ccc12 [Hymecromone, 4-methylumbelliferone]
- uptake of ADAM10 and 17 and Hck into EV (Huh7 liver cells; Huh7 cells treated for HAS induction (48 h) and incubated with Hymecromone, FIG. 2): inhibits
- uptake of HA into EV (Huh7 liver cells; Huh7 cells treated for HAS induction (48 h) and incubated with Hymecromone, Western blot, FIG. 1B): inhibits
- concentration sufficient to completely block the uploading of HA, Hck, and ADAM10 into vesicles (Huh7 liver cells; in vitro): 300 µmol
- incorporation of LMW-HA, ADAM10/17, Hck, and MMPs into extracellular vesicles (Huh7 liver cells; pharmacological inhibition of HAS activity): efficiently blocked
- EV upload and CP targeting (Choriod Plexus): blocks
- clinical outcome, Long COVID ([1]; 32 old patient): fully recovered
- clinical outcome, Alzheimer's disease (AD)-associated depression ([1]; patient): improved significantly
- serious side effects in clinical trials ([2]; at least 182 patients treated in clinical trials): no serious side effects
- fraction of unchanged Hymecromone reaching systemic circulation ([2]; efficient metabolism by the liver): low
- inhibition of the three isotypes of HAS (three isotypes of HAS): efficiently inhibited
